Test: Old liquid medium can be removed and replaced with new medium (200 μL) on day 0.Formulating the compound and treating the cells in the experiment of anti virus: the compound was dissolved in DMSO to a concentration of 30 mM, and then the compound solution was diluted with DMSO to a concentration of […], and then eight dilutions at 4 fold were performed, the highest concentration is 800 μM. The serial diluted compound was added to the above plate at 1 μL per well, the highest final concentration in the experiment is 4 μM (200 fold dilution). TDF (tenofovir dipiroxil fumarate, Selleck, Cat S1400) has a highest concentration of 4 μM as a positive control. […] at a final concentration of 0.5%, TDF was added in to the positive control well at a final concentration of 1 μM.Detection of Viral Genomic DNA by qPCRPrimer: HBV-For-202, […]; HBV-Rev-315, […]. Copies of virus can be calculated using a standard curve plotted by using plasmid containing HBV genome and using SYBR Premix Ex Taq II Takara DRR081S kit and 1 μL cell culture supernatant as a template. EC50 values of the compound on viral replication were calculated by a four parametric nonlinear regression model using Graphpad Prism 5 software to manage concentration—viral copy number.
Conditions: HepG2.2.15

`COC[C@@H]1[C@H]2CN(c3ccc(C(C)(C)OC=O)cc3)C(=O)N2CCN1CC1=C(C(=O)OC)[C@H](c2ccc(F)cc2Cl)N=C(c2nccs2)N1` showed an EC50 of 5 nM.

Reference: ChEMBL document CHEMBL5729003, “Dihydropyrimidine compounds and uses thereof in medicine” (2022)
